# Laboratory results as given in ChEMBL document CHEMBL3507680, “University of Dundee, Gates Library screen for HepG2 cell viability”.
# Assay: Human HepG2 cell viability assay in 384 well format
# Type: toxicity, cell-based
# Set-up: dose 125 nL, time 70.5 hour; concentration not given beside the values
# Conditions: HepG2 cells, read-out: Inhibition
row,Compound,cytotoxicity at 70.5 h [%]
1,CC(C)c1csc(C(=O)N(C)c2ccc(Br)cn2)n1,-3.47
2,CC1COC2(CCN(C(=O)c3ncoc3C(C)C)CC2)O1 (stereo not given),11.1
3,Cc1nn(C)c(N2CCOCC2)c1CNCC1CCS(=O)(=O)C1 (stereo not given),-10.2
4,O=C(NCCNc1ncccn1)NCc1cccc(OC(F)F)c1,18.9
5,CN(C)c1ncccc1CNC(=O)NCc1ccco1,0.432
6,CNC(=O)Cc1ccccc1NC(=O)NCc1ccc(SC)cc1,19.8
7,CC(C)Cc1cc(NC(=O)c2ccc3[nH]nnc3c2)n(C)n1,14.7
8,Cc1cc(N(C)C)nc(N2CC(n3cccn3)C2)n1,5.13
9,O=C(NCC(O)COc1ccc(F)cc1)C1(c2ccc(F)cc2)CC1 (stereo not given),-8.65
10,Cn1nc(CC(C)(C)C)cc1NC(=O)c1ccc(CNC(N)=O)cc1,-7.81
11,CC(=O)Nc1cc(C(=O)Nc2cc(CC(C)(C)C)nn2C)ccc1F,14.4
12,COc1cc2nc(NCc3ccc(C)nc3)nc(N)c2cc1OC,-5.25
13,CCCOc1cccc(NC(=O)NC2CCc3nc(C)nn3C2)c1 (stereo not given),-5.39
14,CCc1cccc(NC(=O)NC2CCc3nc(C)nn3C2)c1 (stereo not given),13.8
15,O=C(NCC(F)(F)F)C1CCCN(Cc2ccno2)C1 (stereo not given),-3.85
16,OCCOc1ccc(NCc2cccc3cccnc23)cn1,17.1
17,Cc1ncccc1CNc1ccc(OCCO)nc1,-6.19
18,CC(C)NC(=O)NCc1ccnc(N(C)C)n1,-6.75
19,CN(C)c1nccc(CNC(=O)NC(C)(C)C)n1,-0.141
20,CN(C)c1nccc(CNC(=O)NCc2ccco2)n1,-8.38
21,CCc1cnc(CN(C)C(=O)NC2CCN(c3ccccc3)C2)s1 (stereo not given),-0.551
22,CCc1cnc(CN(C)C(=O)NC2CCN(CC3CC3)C2)s1 (stereo not given),25.5
23,c1cc(-c2noc(C3CCC3)n2)cc(N2CCCCC2)n1,16.5
24,COC(=O)C1CN(Cc2ccccc2C(C)(C)C#N)CCO1 (stereo not given),-5.04

row,Compound,cytotoxicity at 70.5 h [%]
1,OCCOc1ccc(NCc2cccc3cn[nH]c23)cn1,0.12
2,Cc1cnc(CN2CCN(C(C)c3nc(C4CC4)no3)CC2)cn1 (stereo not given),-6.13
3,CC1CCCCN1C(=O)c1ccc2c(c1)OCCCO2 (stereo not given),10.5
4,O=C(NCc1ccccc1CN1CCCC1=O)Nc1nncs1,-7.24
5,O=S(=O)(CCCc1ccccc1)Cc1nnnn1C1CC1,-8.42
6,O=C(NCc1ccccc1CN1CCCC1=O)Nc1nccs1,-9.69
7,CC1CCCCN1Cc1nc(Cc2ccccc2)no1 (stereo not given),-10.4
8,CC(C)(C(=O)NCc1ccc(C#N)cc1)n1cc(Br)cn1,-2.27
9,O=C(Cn1ccc(=O)c2ccccc21)Nc1cnccc1O,8.04
10,CN(C1CCN(c2ccccn2)CC1)S(=O)(=O)c1ccc(F)cc1,-6.89
11,O=C(c1ccc2c(c1)CCC2)N1CCCCC1C1OCCO1 (stereo not given),-7.93
12,N#Cc1ccc(SCCOCCO)c(F)c1,-8.55
13,CN(C)c1ncccc1C(=O)N1CCN(C2=NCC(C)(C)S2)CC1,6.73
14,O=C(CC1OCCc2ccsc21)NCC1CC1 (stereo not given),-1.8
15,NC(=O)CCNC(=O)Cc1cccc(I)c1,16.7
16,COCCn1ccc(NCc2scnc2C)n1,-8.55
17,N#Cc1ccc(SCCOCCO)c(Cl)c1,-5.04
18,c1ccc(Cc2noc(CN3CCCC3C3CCCCC3)n2)cc1 (stereo not given),16.5
19,CN(C)C(C(=O)NCC1(O)CCCCC1)c1c(F)cccc1F (stereo not given),-13
20,CCOc1ccnc(N2CCN(CCOC)CC2)n1,-5.63
21,Cc1cnc(CN2CCN(C(C)c3nc(C)no3)CC2)cn1 (stereo not given),17.2
22,CC(C)N(Cc1ccccc1)Cc1nnsc1Cl,-8.66
23,CCNC(=O)CN1CCOC(c2ccccc2C(F)(F)F)C1 (stereo not given),0.292
24,CCOCCOCc1cccc(CNc2cncc(-n3cccn3)n2)c1,-2.12

row,Compound,cytotoxicity at 70.5 h [%]
1,COc1ncccc1CNCc1c(C(C)C)nn(C)c1Cl,-5.22
2,COc1ccccc1C(C)CNC(=O)c1c(C)nn(C)c1OC (stereo not given),-3.39
3,COc1ncccc1CNCc1c(C(C)C)nn(C)c1N(C)C,-1.75
4,COc1ccc(NC(=O)N(C)Cc2ccc(Br)o2)cn1,-6.19
5,CCN(CC)C(=O)c1ccc(COc2ccccc2C#N)o1,-9.63
6,Cn1ccnc1COc1ccc(NC(=O)C2CCCO2)cc1 (stereo not given),3.57
7,Cc1cccc(-c2ccc(C(=O)NCCN3CCOCC3)c(=O)[nH]2)c1,-6.01
8,N#CCCN(CCC#N)C(=O)c1ccc(COc2ccccc2C#N)o1,6.22
9,O=C(NCCCN1CCOCC1)c1ccc(-c2ccccc2)[nH]c1=O,-5.86
10,CCSCCC(=O)NCCn1nc2ccccn2c1=O,-7.12
11,COc1ccccc1N1CCC(CNC(=O)CN2CSCC2=O)C1 (stereo not given),-7.92
12,CN(Cc1cccs1)C(=O)c1ccc(N2CCOCC2)c(F)c1,12.4
13,O=C(CN1CCCCCC1=O)NCC1CCN(c2ccccc2)C1 (stereo not given),-5.56
14,COc1cc(NC(=O)NCCO)ccc1N1CCOC1=O,-6.58
15,COc1cc(NC(=O)NC(C2CC2)C2CC2)ccc1N1CCOC1=O,-18
16,COc1ncccc1CNCc1c(C(C)C)nn(C)c1OC,-4.91
17,CN(Cc1ccc2c(c1)OCO2)C(=O)c1ccn(C)c(=O)c1,-10.8
18,COc1c(CNCc2ccc(CN3CCOCC3)cc2)c(C)nn1C,5.61
19,COc1c(CNCc2cccnc2OC(C)C)c(C(C)C)nn1C,-8.38
20,Cc1ccsc1CN(C)C(=O)c1ccc(N2CCOCC2)c(F)c1,-7.5
21,COC(=O)NCCC(=O)NCC1(c2cccc(Cl)c2)CC1,-6.53
22,O=C(CCc1ccncc1)Nc1ccc(OCC2CCOCC2)cc1,-13.6
23,COC(=O)NCCCC(=O)NC1(c2cccc(Cl)c2)CC1,-6.46
24,CN(Cc1cc(=O)c(O)co1)C1CCN(c2ccc(F)cc2)CC1,22.1

row,Compound,cytotoxicity at 70.5 h [%]
1,CNS(=O)(=O)CC1CCCN1C(=O)c1ccc2cc[nH]c2c1 (stereo not given),-7.71
2,COC(=O)Cc1cccc(NC(=O)Cc2cc(C)[nH]n2)c1,21.3
3,Cc1cc(=O)n(C)cc1NC(=O)CC1CCC1,-2.84
4,O=C(CCc1ccncc1)Nc1ccc(OCC2CC2)cc1,-11.9
5,CCc1nc(C(=O)N2CCN(Cc3ccc(Cl)cc3)CC2)c[nH]1,-2.01
6,CC(C)C(=O)N1CCC(NC2CCSCC2)C1 (stereo not given),-4.83
7,CCc1nc(C(=O)N2CCN(C(=O)CCc3ccccc3)CC2)c[nH]1,-6.61
8,CCc1nnc2n1CC(CNCC1CCCC1)CC2 (stereo not given),-1.75
9,Cc1cc(C)c(CNC(=O)C2COc3ccccc3C2)c(=O)[nH]1 (stereo not given),0.458
10,Cc1n[nH]c(C)c1NC(=O)Nc1cccnc1N1CCCC1,12.8
11,Cc1cc(C)c(CNC(=O)NC2COc3ccccc3C2)c(=O)[nH]1 (stereo not given),-8.39
12,Cc1cc(C)c(CNC(=O)NCC2Cc3ccccc32)c(=O)[nH]1 (stereo not given),-12
13,Cc1cc(C)c(CNC(=O)NCC2COc3ccccc3C2)c(=O)[nH]1 (stereo not given),-10.2
14,O=S1(=O)N=C(CSCc2ccccc2)Nc2ccccc21,-3.64
15,Cn1nc2c(cc1=O)CN(c1ncnc3ccsc13)CC2,3.58
16,Cc1nnc(C(NS(=O)(=O)c2cc(C)c(F)cc2F)C(C)C)[nH]1 (stereo not given),-6.79
17,Cc1ccc(NC(=O)CN2CCC(OCC3CCCO3)CC2)c(C)c1 (stereo not given),5.15
18,CNC(=O)CN1CCC(OCC2CCCO2)CC1 (stereo not given),-8.23
19,CS(=O)(=O)Cc1cc(F)ccc1NCc1nnsc1Cl,12.3
20,COc1cc(CNc2cc(-c3nncn3C)ccn2)cc(OC)c1OC,-3.3
21,CCN1CCC(NC(=O)NCC(O)c2ccc(Cl)c(F)c2)CC1 (stereo not given),6.86
22,O=C(NCC(O)c1ccc(Cl)c(F)c1)NC1CC=CC1 (stereo not given),-3.83
23,CC(=O)N1CCN(c2ccnc3c(F)cc(Br)cc23)CC1,-1.55
24,COc1cccc(CN(C)Cn2nc(C(C)(C)C)ccc2=O)c1,2.69

row,Compound,cytotoxicity at 70.5 h [%]
1,CN(Cc1cccc(C#N)c1)Cn1nc(C(C)(C)C)ccc1=O,-0.146
2,CSCC(=O)N(C)Cc1ccc(N(C)C)cc1,-6.63
3,CC(C)(C)c1nnc(CN(Cc2cccs2)CC2CCCO2)o1 (stereo not given),-1.38
4,CCOCC1CCN(C(=O)Nc2ccc3c(c2)CCCO3)C1 (stereo not given),17.3
5,CCCc1nnc(NC(=O)N2CCCC2c2ccncc2)s1 (stereo not given),18.5
6,O=C(NCCNC(=O)c1ccc(Br)cc1)c1ccc(O)cc1,-11
7,N#Cc1cccnc1NCc1ccc(S(=O)(=O)NC2CC2)cc1,-17.8
8,N#Cc1cccnc1NCc1ccc(S(=O)(=O)NCC2CCCO2)cc1 (stereo not given),14
9,CC(C)N(Cc1ccc(C#N)cc1)Cc1nnsc1Cl,-15.5
10,COc1cc2c(cc1OC)S(=O)(=O)N(Cc1cccc(C)c1)C2=O,-11.2
11,CC(O)CN(c1ccccc1)S(=O)(=O)c1cc(C(=O)O)cc2c1CCC2 (stereo not given),-7.68
12,CCNC(=O)NC(=O)C(C)N1CCCc2cc(OC)ccc2C1 (stereo not given),-10.4
13,CCNC(=O)C1CCCN(C(=O)Nc2ccc3c(c2)CCCN3C)C1 (stereo not given),-9.82
14,COc1cc2c(cc1OC)S(=O)(=O)N(Cc1ccccc1C)C2=O,23.7
15,CC(C)Oc1ccc(CNC(=O)c2cc(C(N)=O)cs2)cc1F,-12.2
16,CC(C)NC(=O)CNC(=O)OC(C)(C)C,-13
17,CCc1ncncc1C(=O)Nc1ccc2ccn(CCN(C)C)c2c1,-9.77
18,Cc1ncccc1C(=O)Nc1ccc2ccn(CCN(C)C)c2c1,-4.81
19,O=C(NCCNc1ccc(Br)cn1)c1ccc(O)cc1,-6.46
20,O=C(c1ccncc1)N1CCN(C(=O)c2coc3ccccc23)CC1,-11
21,CC(C)C[C@H](NC(=O)CNC(=O)OC(C)(C)C)C(=O)OC(C)(C)C,-0.919
22,CC(C)c1nn(C)c(Cl)c1CNCc1cccnc1N(C)C,-9.54
23,CC(C)c1noc(CN2CCC(C3CCCCCN3S(C)(=O)=O)CC2)n1 (stereo not given),11
24,CC(=O)N1CCCCCC1C1CCN(Cc2nc(C(C)C)no2)CC1 (stereo not given),0.62
